Patent US20220388964A1 (HiberCell, Inc., priority 2019, published 2022)

Target: GCN2 (Homo sapiens, UniProt Q9P2K8)
Assay: TR-FRET biochemical assay for inhibition of GCN2 (Example 106, for Example 1-4BB)

GCN2, sequence (Q9P2K8 whole entry): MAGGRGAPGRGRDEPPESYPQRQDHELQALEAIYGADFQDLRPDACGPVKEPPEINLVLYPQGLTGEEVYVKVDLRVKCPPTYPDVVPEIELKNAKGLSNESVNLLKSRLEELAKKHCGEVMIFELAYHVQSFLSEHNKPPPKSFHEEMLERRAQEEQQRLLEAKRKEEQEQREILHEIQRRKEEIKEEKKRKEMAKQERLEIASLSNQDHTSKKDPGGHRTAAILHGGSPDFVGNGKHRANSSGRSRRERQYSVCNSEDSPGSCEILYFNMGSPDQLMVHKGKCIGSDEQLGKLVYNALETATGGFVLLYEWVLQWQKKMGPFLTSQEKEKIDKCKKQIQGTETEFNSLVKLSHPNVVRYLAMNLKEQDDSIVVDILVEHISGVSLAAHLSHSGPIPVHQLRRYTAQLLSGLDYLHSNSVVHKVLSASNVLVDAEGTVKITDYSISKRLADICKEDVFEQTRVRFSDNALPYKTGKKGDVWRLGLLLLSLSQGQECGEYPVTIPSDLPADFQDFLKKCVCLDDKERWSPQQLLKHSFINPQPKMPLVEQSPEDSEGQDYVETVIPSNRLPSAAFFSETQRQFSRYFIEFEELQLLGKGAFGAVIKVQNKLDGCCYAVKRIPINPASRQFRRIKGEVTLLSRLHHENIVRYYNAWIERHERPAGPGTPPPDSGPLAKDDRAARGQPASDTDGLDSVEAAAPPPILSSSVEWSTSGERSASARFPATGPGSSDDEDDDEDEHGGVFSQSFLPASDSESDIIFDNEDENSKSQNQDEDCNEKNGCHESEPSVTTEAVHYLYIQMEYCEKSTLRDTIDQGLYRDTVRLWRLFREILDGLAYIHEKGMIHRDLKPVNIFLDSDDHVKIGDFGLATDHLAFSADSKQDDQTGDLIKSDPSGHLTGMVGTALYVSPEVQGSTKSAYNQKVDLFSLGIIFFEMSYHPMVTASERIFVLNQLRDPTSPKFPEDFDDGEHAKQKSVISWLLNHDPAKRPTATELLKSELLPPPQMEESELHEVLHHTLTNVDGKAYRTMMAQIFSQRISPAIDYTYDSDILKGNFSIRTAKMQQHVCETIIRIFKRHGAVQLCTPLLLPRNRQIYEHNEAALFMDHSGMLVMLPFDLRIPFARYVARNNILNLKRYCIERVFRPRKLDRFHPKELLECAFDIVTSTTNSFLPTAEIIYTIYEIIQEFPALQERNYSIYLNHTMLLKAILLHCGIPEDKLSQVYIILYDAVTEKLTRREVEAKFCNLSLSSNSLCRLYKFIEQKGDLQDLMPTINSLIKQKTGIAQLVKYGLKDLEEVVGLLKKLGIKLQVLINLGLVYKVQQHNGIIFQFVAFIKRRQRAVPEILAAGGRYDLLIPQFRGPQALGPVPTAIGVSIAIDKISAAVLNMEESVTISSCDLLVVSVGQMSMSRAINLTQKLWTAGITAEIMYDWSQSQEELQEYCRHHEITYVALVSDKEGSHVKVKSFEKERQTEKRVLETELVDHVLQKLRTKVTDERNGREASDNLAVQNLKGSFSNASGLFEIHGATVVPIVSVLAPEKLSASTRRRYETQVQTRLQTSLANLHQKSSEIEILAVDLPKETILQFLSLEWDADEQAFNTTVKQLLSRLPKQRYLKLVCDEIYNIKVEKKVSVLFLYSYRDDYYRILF

Row | IC50 (Table 9) | IC50 (Table 8) | Compound
1 | < 0.5 µM |  | COc1ncc(Cl)cc1S(=O)(=O)Nc1ccc(F)c(-c2ccc3c(C(=O)NC[C@H]4CCCN4C)n[nH]c3c2F)c1F [Example 3D, 6-(3-((5-chloro-2-methoxy-pyridine)-3-sulfonamido)-2,6-difluorophenyl)-7-fluoro-N-(((R)-1-methylpyrrolidin-2-yl)methyl)-1H-indazole-3-carboxamide]
2 | < 0.5 µM |  | COc1ncc(Cl)cc1S(=O)(=O)Nc1cccc(-c2cc3[nH]nc(C(=O)NCCCO)c3cn2)c1F [Example 3BC, 6-(3-((5-chloro-2-methoxy-pyridine)-3-sulfonamido)-2-fluorophenyl)-N-(3-hydroxy-propyl)-1H-pyrazolo[4,3-c]pyridine-3-carboxamide]
3 | < 0.5 µM |  | COc1ncc(F)cc1S(=O)(=O)Nc1ccc(F)c(-c2ccc3c(C(=O)Nc4ccc(=O)n(C)c4)n[nH]c3c2F)c1F [Example 3BP, 6-(2,6-difluoro-3-((5-fluoro-2-methoxypyridine)-3-sulfonamido)phenyl)-7-fluoro-N-(1-methyl-6-oxo-1,6-dihydropyridin-3-yl)-1H-indazole-3-carboxamide]
4 | < 0.5 µM |  | CNC(=O)c1n[nH]c2c(F)c(-c3c(F)ccc(NS(=O)(=O)c4cc(F)cnc4OC)c3F)ccc12 [Example 3S, 6-(2,6-difluoro-3-((5-fluoro-2-methoxypyridine)-3-sulfonamido)phenyl)-7-fluoro-N-methyl-1H-indazole-3-carboxamide]
5 | < 0.5 µM |  | Cc1ncc(F)cc1S(=O)(=O)Nc1ccc(F)c(-c2ccc3c(C(N)=O)n[nH]c3c2F)c1F [Example 3BA, 6-(2,6-difluoro-3-((5-fluoro-2-methylpyridine)-3-sulfon-amido)phenyl)-7-fluoro-1H-indazole-3-carboxamide]
6 | < 0.5 µM |  | COc1nc(C)c(Cl)cc1S(=O)(=O)Nc1ccc(F)c(-c2ccc3c(C(=O)NCCCN(C)C)n[nH]c3c2F)c1F [Example 3DN, 6-(3-((5-chloro-2-methoxy-6-methylpyridine)-3-sulfon-amido)-2,6-difluorophenyl)-N-(3-(dimethylamino)propyl)-7-fluoro-1H-indazole-3-carboxamide]
7 | 2.5 to 10 µM |  | COc1ncc(F)cc1S(=O)(=O)Nc1ccc(F)c(-c2ccc3c(C(=O)Nc4cccn(C)c4=O)n[nH]c3c2F)c1F [Example 3BW, 6-(2,6-difluoro-3-((5-fluoro-2-methoxypyridine)-3-sulfonamido)phenyl)-7-fluoro-N-(1-methyl-2-oxo-1,2-dihydropyridin-3-yl)-1H-indazole-3-carboxamide]
8 | 2.5 to 10 µM |  | COc1ncc(CO)cc1S(=O)(=O)Nc1ccc(F)c(-c2ccc3c(C(=O)NCCCO)n[nH]c3c2F)c1F [Example 3CN, 6-(2,6-difluoro-3-((5-(hydroxylmethyl)-2-methoxy-pyridine)-3-sulfonamido)-phenyl)-7-fluoro-N-(3-hydroxypropyl)-1H-indazole-3-carboxamide]
9 | < 0.5 µM |  | CC1CCc2c1cc(F)cc2S(=O)(=O)Nc1ccc(F)c(-c2ccc3c(-c4ncc[nH]4)n[nH]c3c2F)c1F (centres unmarked) [Example 4AQ]
10 | < 0.5 µM |  | COc1ncc(F)cc1S(=O)(=O)Nc1ccc(F)c(-c2ccc3c(C(=O)NC[C@@H](O)CO)n[nH]c3c2F)c1F [Example 3AH, 6-(2,6-difluoro-3-((5-fluoro-2-methoxypyridine)-3-sulfonamido)phenyl)-N-((R)-2,3-dihydroxypropyl)-7-fluoro-1H-indazole-3-carboxamide]
11 | > 10 µM |  | NC1CCc2c1cc(F)cc2S(=O)(=O)Nc1ccc(F)c(-c2ccc3c(-c4ncc[nH]4)n[nH]c3c2F)c1F (centres unmarked) [Example 4AO]
12 | < 0.5 µM |  | COc1ncc(Cl)cc1S(=O)(=O)Nc1cccc(-c2cc3[nH]nc(C(N)=O)c3cn2)c1F [Example 3BD, 6-(3-((5-chloro-2-methoxy-pyridine)-3-sulfonamido)-2-fluorophenyl)-1H-pyrazolo-[4,3-c]pyridine-3-carboxamide]
13 | < 0.5 µM |  | COc1ncc(F)cc1S(=O)(=O)Nc1ccc(F)c(-c2ccc3c(C(=O)Nc4cn[nH]c4)n[nH]c3c2F)c1F [Example 3BO, 6-(2,6-difluoro-3-((5-fluoro-2-methoxypyridine)-3-sulfonamido)phenyl)-7-fluoro-N-(1H-pyrazol-4-yl)-1H-indazole-3-carboxamide]
14 | 0.5 to 2.5 µM |  | COc1ncc(F)cc1S(=O)(=O)Nc1cc(F)cc(-c2ccc3c(C(=O)N[C@H]4CCN(C)C4)n[nH]c3c2F)c1F [Example 3BT, 6-(3-((5-fluoro-2-methoxy-pyridine)-3-sulfonamido)-2,5-difluorophenyl)-7-fluoro-N-((S)-1-methylpyrrolidin-3-yl)-1H-indazole-3-carboxamide]
15 | > 10 µM |  | COc1ncc(CO)cc1S(=O)(=O)Nc1ccc(F)c(-c2ccc3c(C(=O)NCCCN(C)C)n[nH]c3c2F)c1F [Example 3DB, 6-(2,6-difluoro-3-((5-(hydroxymethyl)-2-meth-oxypyridine)-3-sulfonamido)-phenyl)-N-(3-(dimethyl-amino)propyl)-7-fluoro-1H-indazole-3-carboxamide]

More lines, now with the values behind:

Row | Compound | IC50 (Table 9) | IC50 (Table 8)
16 | O=S(=O)(Nc1ccc(F)c(-c2ccc3c(-c4ncc[nH]4)n[nH]c3c2F)c1F)c1cccc(F)c1F [Example 2AG, N-(2,4-difluoro-3-(7-fluoro-3-(1H-imidazol-2-yl)-1H-indazol-6-yl)phenyl)-2,3-difluorobenzenesulfonamide] |  | < 0.5 µM
17 | COc1ncc(F)cc1S(=O)(=O)Nc1ccnc(-c2ccc3c(-c4ncc[nH]4)n[nH]c3c2F)c1C#N [Example 29, N-(3-Cyano-2-(7-fluoro-3-(1H-imidazol-2-yl)-1H-indazol-6-yl)pyridin-4-yl)-5-fluoro-2-methoxypyridine-3-sulfonamide] | 2.5 to 10 µM | 
18 | O=c1cccc(S(=O)(=O)Nc2ccc(F)c(-c3ccc4c(-c5ncc[nH]5)n[nH]c4c3F)c2F)[nH]1 [Example 2AL, N-(2,4-difluoro-3-(7-fluoro-3-(1H-imidazol-2-yl)-1H-indazol-6-yl)phenyl)-6-oxo-1,6-dihydropyridine-2-sulfonamide] |  | 2.5 to 10 µM
19 | CC(C)c1ccc(S(=O)(=O)Nc2ccc(F)c(-c3ccc4c(-c5ncc[nH]5)n[nH]c4c3F)c2F)cc1 [Example 2G, N-(2,4-difluoro-3-(7-fluoro-3-(1H-imidazol-2-yl)-1H-indazol-6-yl)phenyl)-4-isopropyl-benzenesulfonamide] |  | > 10 µM
20 | Cn1cc(S(=O)(=O)Nc2ccc(F)c(-c3ccc4c(-c5ncc[nH]5)n[nH]c4c3F)c2F)cn1 [Example 2C, N-(2,4-difluoro-3-(7-fluoro-3-(1H-imidazol-2-yl)-1H-indazol-6-yl)phenyl)-1-methyl-1H-pyrazole-4-sulfonamide] |  | 2.5 to 10 µM
21 | Cc1ccccc1S(=O)(=O)Nc1ccc(F)c(-c2ccc3c(-c4ncc[nH]4)n[nH]c3c2F)c1F [Example 2BR, N-(2,4-difluoro-3-(7-fluoro-3-(1H-imidazol-2-yl)-1H-indazol-6-yl)phenyl)-2-methylbenzenesulfonamide] |  | < 0.5 µM
22 | COc1cccc(S(=O)(=O)Nc2ccc(F)c(-c3ccc4c(-c5ncc[nH]5)n[nH]c4c3F)c2F)n1 [Example 2AM, N-(2,4-difluoro-3-(7-fluoro-3-(1H-imidazol-2-yl)-1H-indazol-6-yl)phenyl)-6-methoxypyridine-2-sulfonamide] |  | 0.5 to 2.5 µM
23 | COc1ncc(Cl)cc1S(=O)(=O)Nc1ccc(F)c(-c2ccc3c(NC(C)=O)n[nH]c3c2F)c1F [Example 8, N-(6-(3-((5-Chloro-2-methoxypyridine)-3-sulfonamido)-2,6-difluorophenyl)-7-fluoro-1H-indazol-3-yl)acetamide] |  | 0.5 to 2.5 µM
